Experimental data taken from patent US6762205B1, “Phenyl sulfamate derivatives” (Teikoku Hormone Mfg. Co., Ltd., priority 1999, dated 2004).
Like-named read-outs stand apart in the source and are kept apart here.

Assays:
steroid sulfatase [1] = biological target: T1, steroid sulfatase (Rattus norvegicus, UniProt P15589); assay: In vivo inhibitory effect on steroid sulfatase (rat liver and uterus homogenates after 5 days of dosing); conditions: po, once a day for 5 days, female SD rats, 4 hours after final administration
T1 construct: the liver and the uterus were excised from each rat; from tissue; host or cells: rat liver and uterus homogenate (2,000 x g supernatant) after 5 days of dosing
T1 sequence (P15589 20-577): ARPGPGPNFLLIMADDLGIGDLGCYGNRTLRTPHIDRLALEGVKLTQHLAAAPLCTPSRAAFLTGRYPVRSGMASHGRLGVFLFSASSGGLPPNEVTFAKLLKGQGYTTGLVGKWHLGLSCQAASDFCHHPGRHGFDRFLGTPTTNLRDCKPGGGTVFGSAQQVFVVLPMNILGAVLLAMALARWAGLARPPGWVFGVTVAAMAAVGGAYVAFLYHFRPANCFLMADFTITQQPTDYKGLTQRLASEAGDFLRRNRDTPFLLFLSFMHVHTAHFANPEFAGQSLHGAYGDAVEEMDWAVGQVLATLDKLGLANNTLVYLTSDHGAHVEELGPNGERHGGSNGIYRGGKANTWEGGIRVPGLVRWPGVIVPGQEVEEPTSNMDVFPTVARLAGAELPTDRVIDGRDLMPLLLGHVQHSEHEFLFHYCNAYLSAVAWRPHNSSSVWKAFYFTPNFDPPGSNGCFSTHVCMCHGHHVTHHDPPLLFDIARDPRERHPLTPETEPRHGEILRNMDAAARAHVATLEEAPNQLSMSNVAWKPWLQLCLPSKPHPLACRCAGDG
Source text: (2) Measurement of an In vivo Inhibitory Effect on Steroid Sulfatase
A test compound was suspended in a 0.5% polyoxyethylene (20) sorbitan monooleate solution (Tween 80) and administered, once a day, to a group of 5 female SD strain rats (weighing 168-194 g) for 5 days.
Four hours after the final administration, all rats were sacrificed by ether anesthesia and dissected. Thus, the liver and the uterus were excised from each rat, washed once with cold phosphate-buffered saline (PBS, pH 7.4), and preserved at −70° C. or below. Each of the liver and the uterus was finely minced with scissors, and suspended in PBS containing 250 mM sucrose (5 ml/g tissue). Under cooling with ice, each suspension was homogenized with an Ultra-Turrax homogenizer. The resulting homogenate was centrifuged (at 4° C.) at 2,000×g for 30 minutes to remove nuclei and cell debris, and the protein concentration in this supernatant was measured according to the method of Bradford [Anal. Biochem. 72, 248-254(1976)].
The homogenate in an amount corresponding to a protein concentration of 100-500 μg/ml was mixed with [6,7-^3H]estrone 3-sulfate (with a specific activity of 49 Ci/mmol; from New England Nuclear, Boston, Mass., USA) in an amount corresponding to a substrate concentration of 20 μM. This mixture was diluted with PBS to a total volume of 1 ml, and incubated at 37° C. for 30 minutes. After incubation (1 ml), the steroid sulfatase activity was determined in the same manner as described above for the in vitro measurement (1).

steroid sulfatase [2] = biological target: T2, steroid sulfatase (Homo sapiens, UniProt P08842); conditions: qualitative statement on prior art compounds; cited from earlier work
T2 sequence (P08842 22-583): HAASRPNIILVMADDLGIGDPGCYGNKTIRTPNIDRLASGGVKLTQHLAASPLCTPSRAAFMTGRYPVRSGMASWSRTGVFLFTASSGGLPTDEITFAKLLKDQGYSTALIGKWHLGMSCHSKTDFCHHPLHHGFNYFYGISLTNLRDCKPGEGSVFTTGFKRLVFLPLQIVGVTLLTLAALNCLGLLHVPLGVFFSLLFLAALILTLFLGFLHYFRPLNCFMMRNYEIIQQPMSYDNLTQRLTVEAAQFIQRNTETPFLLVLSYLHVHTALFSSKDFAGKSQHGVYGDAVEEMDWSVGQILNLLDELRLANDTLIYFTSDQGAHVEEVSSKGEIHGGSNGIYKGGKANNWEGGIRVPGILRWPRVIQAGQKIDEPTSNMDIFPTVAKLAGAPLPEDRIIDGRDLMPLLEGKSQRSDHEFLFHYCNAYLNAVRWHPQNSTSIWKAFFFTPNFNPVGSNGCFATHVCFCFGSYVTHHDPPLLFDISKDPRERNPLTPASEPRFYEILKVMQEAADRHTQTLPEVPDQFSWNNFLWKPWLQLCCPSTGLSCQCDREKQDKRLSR

[3] = qualitative statement on prior art compounds; cited from earlier work
steroid sulfatase [4] = biological target: T2, steroid sulfatase; assay: In vitro inhibitory effect on steroid sulfatase (intact MCF-7 cells, [3H]estrone 3-sulfate hydrolysis); type: cell-based; set-up: Six-well plates (9.4 cm^2/well) were inoculated with intact MCF-7 human breast cancer cells; endogenous in cells; host or cells: MCF-7 human breast cancer cells; conditions: MCF7; 3 × 10^−9 M test compound; intact MCF-7 human breast cancer cells; 37° C., 20 hours; read-out: Inhibitory rate (3 × 10^−9 M. %)
Method: (1) Measurement of an In vitro Inhibitory Effect on Steroid Sulfatase
Six-well plates (9.4 cm^2/well) were inoculated with intact MCF-7 human breast cancer cells at a density of about 1×10^5 cells/well. Using Dulbecco's modified Eagle medium (DMEM) containing 10 mM HEPES, 5% fetal bovine serum, 0.011% sodium pyruvate and 0.37% sodium bicarbonate, the cells were grown to 80% confluency.
The plates were washed with Earle's balanced salt solution (EBSS from Life Technologies Inc., Grand Island, N.Y., USA). Then, serum-free DMEM (2 ml) containing 4 pmol (4.4×10^5 dpm) of [6,7-^3H]estrone 3-sulfate (with a specific activity of 49 Ci/mmol; from New England Nuclear, Boston, Mass., USA), together with a test compound, was placed on each plate and incubated at 37° C. for 20 hours. After incubation, the plate was cooled, and the medium (1 ml) was pipetted into a separating tube containing [4-^14C]estrone (6×10^3 dpm) (with a specific activity of 52.5 mCi/mmol; from New England Nuclear, Boston, Mass., USA). This mixture, together with toluene (4 ml), was vigorously shaken for 30 seconds. It was shown by experiment that more than 90% of [4-^14C]estrone was removed from the aqueous layer by this treatment. A portion (2 ml) of the organic phase was taken, and the ^3H and ^14C contents thereof were measured by scintillation spectrometry. Then, the amount of estrone 3-sulfate hydrolyzed was calculated from the total 3H count (corrected for the volumes of the medium used and the organic phase, and for the recovery of the [^14C]estrone added) and the specific activity of the substrate.

[5] = liver, read-out: Inhibitory rate (0.5 mg/kg, p.o., %) Liver
[6] = uterus, read-out: Inhibitory rate (0.5 mg/kg, p.o., %) Uterus

inhibition at 0.5 mg/kg (steroid sulfatase [1]; [5]) [%] | inhibition at 0.5 mg/kg (steroid sulfatase [1]; [6]) [%] | inhibition at 0.003 µM (steroid sulfatase [4]) [%] | SMILES | inhibitory effect on steroid sulfatase (steroid sulfatase [2]) | estrogenic action [3]
97.2 | 97.6 | – | NS(=O)(=O)Oc1ccc(-c2ccc(OS(N)(=O)=O)cc2)cc1 [Example 21, biphenyl-4,4′-diyl disulfamate] | – | –
– | – | – | C[C@]12CC[C@@H]3c4ccc(OS(N)(=O)=O)cc4CC[C@H]3[C@@H]1CCC2=O [EMATE, estrone 3-sulfamate] | powerful inhibitory effect | powerful estrogenic action
– | – | 94 | N#Cc1ccc(-c2ccc(OS(N)(=O)=O)cc2)c(C#N)c1 [Example 27, 2′,4′-dicyanobiphenyl-4-yl sulfamate] | – | –
99.5 | 100 | 87 | N#Cc1cc([N+](=O)[O-])ccc1-c1ccc(OS(N)(=O)=O)cc1 [Example 25, 2′-cyano-4′-nitrobiphenyl-4-yl sulfamate] | – | –
85.3 | 79 | – | N#Cc1ccc(N(Cc2ccc(OS(N)(=O)=O)cc2)n2cnnc2)cc1 [Example 38, 4-[N-(4-cyano-phenyl)-N-(1,2,4-triazol-4-yl)aminomethyl]phenyl sulfamate] | – | –
95.4 | 93.8 | 76 | N#Cc1ccccc1-c1ccc(OS(N)(=O)=O)cc1 [Example 3, 2′-cyanobiphenyl-4-yl sulfamate] | – | –
– | – | – | Cc1cc(=O)oc2cc(OS(N)(=O)=O)ccc12 [COUMATE, 4-methylcoumarin 7-sulfamate] | weak | do not show an estrogenic action
91.2 | 94.9 | – | NS(=O)(=O)Oc1ccc(-c2ccccc2[N+](=O)[O-])cc1 [Example 1, 2′-nitrobiphenyl-4-yl sulfamate] | – | –
97 | 100 | – | NS(=O)(=O)Oc1ccc(-c2ccc([N+](=O)[O-])cc2)cc1 [Example 16, 4′-nitrobiphenyl-4-yl sulfamate] | – | –
– | – | – | CCCCCCCCCCCCCC(=O)NCCc1ccc(OS(N)(=O)=O)cc1 [DU-14, 4-(2-myristoylaminoethyl)phenyl sulfamate] | weak | do not show an estrogenic action

SMILES | inhibition at 0.5 mg/kg (steroid sulfatase [1]; [5]) [%] | inhibition at 0.5 mg/kg (steroid sulfatase [1]; [6]) [%] | inhibition at 0.003 µM (steroid sulfatase [4]) [%] | inhibitory effect on steroid sulfatase (steroid sulfatase [2]) | estrogenic action [3]
NS(=O)(=O)Oc1ccc(-c2ccc([N+](=O)[O-])cc2[N+](=O)[O-])cc1 [Example 23, 2′,4′-dinitrobiphenyl-4-yl sulfamate] | – | – | 67 | – | –
